pIC50: −log10 of the molar value. Where a SMILES comes first, the peptide text is derived from it. Bridges are numbered along the chain shown (N, C = ends). [ ]: non-standard residue; d: D form. The star is where a group is joined. ξ: configuration not given here. Phe(4-COOH) = N[C@@H](Cc1ccc(C(=O)O)cc1)C(=O)O; Bip = N[C@@H](Cc1ccc(-c2ccccc2)cc1)C(=O)O; Phe(3-Me) = Cc1cccc(C[C@H](N)C(=O)O)c1; Phe(4-F) = N[C@@H](Cc1ccc(F)cc1)C(=O)O; Val(3-OH) = CC(C)(O)[C@H](N)C(=O)O; Cha = N[C@@H](CC1CCCCC1)C(=O)O; Thr(3ξ) = CC(O)[C@H](N)C(=O)O; Carboxymethyl = O=C(O)C*; NMeA = CN[C@@H](C)C(=O)O; Nle = CCCC[C@H](N)C(=O)O; Aun = NCCCCCCCCCCC(=O)O; Dab = NCC[C@H](N)C(=O)O; AEEA = NCCOCCOCC(=O)O

T1 sequence (Q15116 25-288): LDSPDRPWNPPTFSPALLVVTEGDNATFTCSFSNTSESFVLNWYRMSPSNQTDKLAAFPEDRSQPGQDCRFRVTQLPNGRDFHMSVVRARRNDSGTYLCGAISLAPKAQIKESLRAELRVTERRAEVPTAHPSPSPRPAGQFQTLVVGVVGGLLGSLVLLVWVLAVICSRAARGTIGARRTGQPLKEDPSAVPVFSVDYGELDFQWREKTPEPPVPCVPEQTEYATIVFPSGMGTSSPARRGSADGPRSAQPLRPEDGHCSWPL

The assay has as its target T1, PD-1/PD-L1 interaction (PE-labeled human PD-L1-Ig binding to Jurkat cell line over-expressing human PD-1) (Homo sapiens, UniProt Q15116).
T1 construct: expressed in transfected cells; host or cells: Jurkat
Briefly: Jurkat-PD-1 Cell Binding High-Content Screening Assay (CBA). As to conditions: PE-labeled PD-L1-Ig 20 nM final, Jurkat-hPD-1 cells; read-out: Jurkat HPD1 PDL1 IC50. A digest of the protocol:
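High-content imaging read-out of PE-PD-L1-Ig binding (20 nM final, 1 h) to Jurkat-hPD-1 cells, after 2 h compound exposure at 37 °C in DMEM with 10% FCS. Nuclei counterstained with Hoechst 33342 after paraformaldehyde fixation.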
The term pIC50 denotes the negative decadic logarithm of the IC50, by convention in mol/L. On to `Cc1cccc(C[C@@H]2NC(=O)[C@H](CC(=O)O)NC(=O)[C@H](Cc3ccc(C(=O)O)cc3)NC(=O)[C@H](C(C)O)NC(=O)CSC[C@@H](C(=O)N[C@@H](CCN)C(=O)NCCOCCOCC(=O)NCCCCCCCCCCC(=O)O)NC(=O)[C@H](CCC(=O)O)NC(=O)[C@H](C(C)C)NC(=O)[C@H](CC3CCCCC3)NC(=O)[C@H](CCN)NC(=O)[C@@H](CC(C)C)NC(=O)[C@H](C)N(C)C(=O)[C@H](Cc3ccc(C(=O)O)cc3)NC(=O)[C@H](Cc3ccc(-c4ccccc4)cc3)NC(=O)[C@H](Cc3ccc(C(=O)O)cc3)NC2=O)c1` (stereo partly drawn) [Example 2547] ({CH2CO}-[Thr(3ξ)][Phe(4-COOH)]D[Phe(3-Me)][Phe(4-COOH)][Bip][Phe(4-COOH)][NMeA][dL][Dab][Cha]VEC[Dab][AEEA][Aun]-OH; thioether N-14), for which the negative logarithm of the IC50 (pIC50) was 7.83.
The figure for `Cc1cccc(C[C@@H]2NC(=O)[C@H](CC(=O)O)NC(=O)[C@H](Cc3ccc(C(=O)O)cc3)NC(=O)[C@H](Cc3ccc(F)cc3)NC(=O)CSC[C@@H](C(=O)N[C@@H](CCN)C(=O)NCCOCCOCC(=O)NCCCCCCCCCCC(=O)O)NC(=O)[C@H](CCC(=O)O)NC(=O)[C@H](C(C)C)NC(=O)[C@H](CC3CCCCC3)NC(=O)[C@H](CCN)NC(=O)[C@@H](CC(C)C)NC(=O)[C@H](C)N(C)C(=O)[C@H](Cc3ccc(C(=O)O)cc3)NC(=O)[C@H](Cc3ccc(-c4ccccc4)cc3)NC(=O)[C@H](Cc3ccc(C(=O)O)cc3)NC2=O)c1` [Example 2548] ({CH2CO}-[Phe(4-F)][Phe(4-COOH)]D[Phe(3-Me)][Phe(4-COOH)][Bip][Phe(4-COOH)][NMeA][dL][Dab][Cha]VEC[Dab][AEEA][Aun]-OH; thioether N-14) is 7.71.
Take `CCCC[C@@H]1NC(=O)CSC[C@@H](C(=O)N[C@@H](CCN)C(=O)NCCOCCOCC(=O)NCCCCCCCCCCC(=O)O)NC(=O)[C@H](CCC(=O)O)NC(=O)[C@H](C(C)C)NC(=O)[C@H](CC2CCCCC2)NC(=O)[C@H](CCN)NC(=O)[C@@H](CC(C)C)NC(=O)[C@H](C)N(C)C(=O)[C@H](Cc2ccc(C(=O)O)cc2)NC(=O)[C@H](Cc2ccc(-c3ccccc3)cc2)NC(=O)[C@H](Cc2ccc(C(=O)O)cc2)NC(=O)[C@H](Cc2cccc(C)c2)NC(=O)[C@H](CC(=O)O)NC(=O)[C@H](Cc2ccc(C(=O)O)cc2)NC1=O` [Example 2549] ({CH2CO}-[Nle][Phe(4-COOH)]D[Phe(3-Me)][Phe(4-COOH)][Bip][Phe(4-COOH)][NMeA][dL][Dab][Cha]VEC[Dab][AEEA][Aun]-OH; thioether N-14): the pIC50 was 8.27.
`Cc1cccc(C[C@@H]2NC(=O)[C@H](CC(=O)O)NC(=O)[C@H](Cc3ccc(C(=O)O)cc3)NC(=O)[C@H](CCN)NC(=O)CSC[C@@H](C(=O)N[C@@H](CCN)C(=O)NCCOCCOCC(=O)NCCCCCCCCCCC(=O)O)NC(=O)[C@H](Cc3cnc[nH]3)NC(=O)[C@H](C(C)O)NC(=O)[C@H](CC3CCCCC3)NC(=O)[C@H](CCN)NC(=O)[C@@H](CC(C)C)NC(=O)[C@H](C)N(C)C(=O)[C@H](Cc3ccc(C(=O)O)cc3)NC(=O)[C@H](Cc3ccc(-c4ccccc4)cc3)NC(=O)[C@H](Cc3ccc(C(=O)O)cc3)NC2=O)c1` (stereo partly drawn) [Example 2550] ({CH2CO}-[Dab][Phe(4-COOH)]D[Phe(3-Me)][Phe(4-COOH)][Bip][Phe(4-COOH)][NMeA][dL][Dab][Cha][Thr(3ξ)]HC[Dab][AEEA][Aun]-OH; thioether N-14): the negative logarithm of the IC50 (pIC50) was 8.55.
To `Cc1cccc(C[C@@H]2NC(=O)[C@H](CC(=O)O)NC(=O)[C@H](Cc3ccc(OCC(=O)O)cc3)NC(=O)[C@H](CCN)NC(=O)CSC[C@@H](C(=O)N[C@@H](CCN)C(=O)NCCOCCOCC(=O)NCCCCCCCCCCC(=O)O)NC(=O)[C@H](Cc3cnc[nH]3)NC(=O)[C@H](C(C)(C)O)NC(=O)[C@H](CC3CCCCC3)NC(=O)[C@H](CCN)NC(=O)[C@@H](CC(C)C)NC(=O)[C@H](C)N(C)C(=O)[C@H](Cc3ccc(OCC(=O)O)cc3)NC(=O)[C@H](Cc3ccc(-c4ccccc4)cc3)NC(=O)[C@H](Cc3ccc(OCC(=O)O)cc3)NC2=O)c1` [Example 2551] ({CH2CO}-[Dab]Y(Carboxymethyl)D[Phe(3-Me)]Y(Carboxymethyl)[Bip]Y(Carboxymethyl)[NMeA][dL][Dab][Cha][Val(3-OH)]HC[Dab][AEEA][Aun]-OH; thioether N-14) belongs 7.76.
Take `Cc1cccc(C[C@@H]2NC(=O)[C@H](CC(=O)O)NC(=O)[C@H](Cc3ccc(C(=O)O)cc3)NC(=O)[C@H](CCN)NC(=O)CSC[C@@H](C(=O)N[C@@H](CCN)C(=O)NCCOCCOCC(=O)NCCCCCCCCCCC(=O)O)NC(=O)[C@H](CCC(=O)O)NC(=O)[C@H](C(C)O)NC(=O)[C@H](CC3CCCCC3)NC(=O)[C@H](CCN)NC(=O)[C@@H](CC(C)C)NC(=O)[C@H](C)N(C)C(=O)[C@H](Cc3ccc(C(=O)O)cc3)NC(=O)[C@H](Cc3ccc(-c4ccccc4)cc3)NC(=O)[C@H](Cc3ccc(C(=O)O)cc3)NC2=O)c1` (stereo partly drawn) [Example 2552] ({CH2CO}-[Dab][Phe(4-COOH)]D[Phe(3-Me)][Phe(4-COOH)][Bip][Phe(4-COOH)][NMeA][dL][Dab][Cha][Thr(3ξ)]EC[Dab][AEEA][Aun]-OH; thioether N-14): the pIC50 was 7.73.
Regarding `Cc1cccc(C[C@@H]2NC(=O)[C@H](CC(=O)O)NC(=O)[C@H](Cc3ccc(OCC(=O)O)cc3)NC(=O)[C@H](C(C)O)NC(=O)CSC[C@@H](C(=O)N[C@@H](CCN)C(=O)NCCOCCOCC(=O)NCCCCCCCCCCC(=O)O)NC(=O)[C@H](CCC(=O)O)NC(=O)[C@H](C(C)C)NC(=O)[C@H](CC3CCCCC3)NC(=O)[C@H](CCN)NC(=O)[C@@H](CC(C)C)NC(=O)[C@H](C)N(C)C(=O)[C@H](Cc3ccc(C(=O)O)cc3)NC(=O)[C@H](Cc3ccc(-c4ccccc4)cc3)NC(=O)[C@H](Cc3ccc(C(=O)O)cc3)NC2=O)c1` (stereo partly drawn) [Example 2553] ({CH2CO}-[Thr(3ξ)]Y(Carboxymethyl)D[Phe(3-Me)][Phe(4-COOH)][Bip][Phe(4-COOH)][NMeA][dL][Dab][Cha]VEC[Dab][AEEA][Aun]-OH; thioether N-14), the pIC50 was 8.32.
`Cc1cccc(C[C@@H]2NC(=O)[C@H](CC(=O)O)NC(=O)[C@H](Cc3ccc(C(=O)O)cc3)NC(=O)[C@H](CCN)NC(=O)CSC[C@@H](C(=O)N[C@@H](CCN)C(=O)NCCCCCCCCCCC(=O)O)NC(=O)[C@H](Cc3cnc[nH]3)NC(=O)[C@H](C(C)(C)O)NC(=O)[C@H](CC3CCCCC3)NC(=O)[C@H](CCN)NC(=O)[C@@H](CC(C)C)NC(=O)[C@H](C)N(C)C(=O)[C@H](Cc3ccc(C(=O)O)cc3)NC(=O)[C@H](Cc3ccc(-c4ccccc4)cc3)NC(=O)[C@H](Cc3ccc(C(=O)O)cc3)NC2=O)c1` [Example 2554] ({CH2CO}-[Dab][Phe(4-COOH)]D[Phe(3-Me)][Phe(4-COOH)][Bip][Phe(4-COOH)][NMeA][dL][Dab][Cha][Val(3-OH)]HC[Dab][Aun]-OH; thioether N-14): the pIC50 is 8.07.
To `Cc1cccc(C[C@@H]2NC(=O)[C@H](CC(=O)O)NC(=O)[C@H](Cc3ccc(C(=O)O)cc3)NC(=O)[C@H](C(C)O)NC(=O)CSC[C@@H](C(=O)N[C@@H](CCN)C(=O)NCCOCCOCC(=O)NCCCCCCCCCCC(=O)O)NC(=O)[C@H](CCC(=O)O)NC(=O)[C@H](C(C)O)NC(=O)[C@H](CC3CCCCC3)NC(=O)[C@H](CCN)NC(=O)[C@@H](CC(C)C)NC(=O)[C@H](C)N(C)C(=O)[C@H](Cc3ccc(C(=O)O)cc3)NC(=O)[C@H](Cc3ccc(-c4ccccc4)cc3)NC(=O)[C@H](Cc3ccc(C(=O)O)cc3)NC2=O)c1` (stereo partly drawn) [Example 2555] ({CH2CO}-[Thr(3ξ)][Phe(4-COOH)]D[Phe(3-Me)][Phe(4-COOH)][Bip][Phe(4-COOH)][NMeA][dL][Dab][Cha][Thr(3ξ)]EC[Dab][AEEA][Aun]-OH; thioether N-14) belongs 7.69; to `Cc1cccc(C[C@@H]2NC(=O)[C@H](CC(=O)O)NC(=O)[C@H](Cc3ccc(C(=O)O)cc3)NC(=O)[C@H](C(C)O)NC(=O)CSC[C@@H](C(=O)N[C@@H](CCN)C(=O)NCCOCCOCC(=O)NCCCCCCCCCCC(=O)O)NC(=O)[C@H](CCC(=O)O)NC(=O)[C@H](CO)NC(=O)[C@H](CC3CCCCC3)NC(=O)[C@H](CCN)NC(=O)[C@@H](CC(C)C)NC(=O)[C@H](C)N(C)C(=O)[C@H](Cc3ccc(C(=O)O)cc3)NC(=O)[C@H](Cc3ccc(-c4ccccc4)cc3)NC(=O)[C@H](Cc3ccc(C(=O)O)cc3)NC2=O)c1` (stereo partly drawn) [Example 2556] ({CH2CO}-[Thr(3ξ)][Phe(4-COOH)]D[Phe(3-Me)][Phe(4-COOH)][Bip][Phe(4-COOH)][NMeA][dL][Dab][Cha]SEC[Dab][AEEA][Aun]-OH; thioether N-14), 7.39.
To `Cc1cccc(C[C@@H]2NC(=O)[C@H](CC(=O)O)NC(=O)[C@H](Cc3ccc(C(=O)O)cc3)NC(=O)[C@H](C(C)O)NC(=O)CSC[C@@H](C(=O)N[C@@H](CCN)C(=O)NCCOCCOCC(=O)NCCCCCCCCCCC(=O)O)NC(=O)[C@H](CC(=O)O)NC(=O)[C@H](C(C)C)NC(=O)[C@H](CC3CCCCC3)NC(=O)[C@H](CCN)NC(=O)[C@@H](CC(C)C)NC(=O)[C@H](C)N(C)C(=O)[C@H](Cc3ccc(C(=O)O)cc3)NC(=O)[C@H](Cc3ccc(-c4ccccc4)cc3)NC(=O)[C@H](Cc3ccc(C(=O)O)cc3)NC2=O)c1` (stereo partly drawn) [Example 2557] ({CH2CO}-[Thr(3ξ)][Phe(4-COOH)]D[Phe(3-Me)][Phe(4-COOH)][Bip][Phe(4-COOH)][NMeA][dL][Dab][Cha]VDC[Dab][AEEA][Aun]-OH; thioether N-14) belongs 9.15.
The figure for `Cc1cccc(C[C@@H]2NC(=O)[C@H](CC(=O)O)NC(=O)[C@H](Cc3ccc(OCC(=O)O)cc3)NC(=O)[C@H](C(C)O)NC(=O)CSC[C@@H](C(=O)N[C@@H](CCN)C(=O)NCCOCCOCC(=O)NCCCCCCCCCCC(=O)O)NC(=O)[C@H](CC(=O)O)NC(=O)[C@H](C(C)C)NC(=O)[C@H](CC3CCCCC3)NC(=O)[C@H](CCN)NC(=O)[C@@H](CC(C)C)NC(=O)[C@H](C)N(C)C(=O)[C@H](Cc3ccc(OCC(=O)O)cc3)NC(=O)[C@H](Cc3ccc(-c4ccccc4)cc3)NC(=O)[C@H](Cc3ccc(OCC(=O)O)cc3)NC2=O)c1` (stereo partly drawn) [Example 2558] ({CH2CO}-[Thr(3ξ)]Y(Carboxymethyl)D[Phe(3-Me)]Y(Carboxymethyl)[Bip]Y(Carboxymethyl)[NMeA][dL][Dab][Cha]VDC[Dab][AEEA][Aun]-OH; thioether N-14) is 7.94.

Source of the values: patent publication US20260070945A1, “MACROCYCLIC IMMUNOMODULATORS” (Bristol-Myers Squibb Company, priority 2022, published 2026).
